# Like-named read-outs stand apart in the source and are kept apart here.
# System: compound-treated mice
# Test: Neuropharmacological assay (SmartCube): behavioral activity signature and minimal effective dose
# Type: in vivo
# Conditions: for minimal effective dose: Mus musculus, ip; for AD: ADHD (probability of activity signature) / AG: analgesic (probability of activity signature) / AX: anxiolytic (probability of activity signature) / CE: cognitive enhancer (probability of activity signature) / DP: anti-depressant (probability of activity signature) / MS: mood stabilizer (probability of activity signature) / PS: anti-psychotic (probability of activity signature) / SD: sedative hypnotic (probability of activity signature) / UN: uncharacterized CNS activity (probability of activity signature): i.p. 15 min before test, most efficacious dose(s)
# Summary of the method: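 Mice dosed i.p. 15 min before test, compound in N-methyl-2-pyrrolidone/PEG/propylene glycol, 3 doses; video-captured behavior matched to reference-drug signatures, giving per-class probabilities at most efficacious dose. MED from doses typically 0.3–30 mpk, defined as lowest dose with ≥50% total activity.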
# [1] = MED = dose having 50% or more total activity, read-out: Potency: minimal effective dose (MED)
# [2] = MED = dose having 50% or more total activity, read-out: Potency: minimal effective dose (MED), binned
Structure (SMILES),minimal effective dose [1] [mg/kg],AD: ADHD (probability of activity signature),AG: analgesic (probability of activity signature),AX: anxiolytic (probability of activity signature),CE: cognitive enhancer (probability of activity signature),DP: anti-depressant (probability of activity signature),MS: mood stabilizer (probability of activity signature),PS: anti-psychotic (probability of activity signature),SD: sedative hypnotic (probability of activity signature),UN: uncharacterized CNS activity (probability of activity signature),minimal effective dose [2] [mg/kg],Potency: minimal effective dose (MED) (MED = dose having 50% or more total activity)
"CNC1COCc2ccccc21.Cl (centres unmarked) [Example 54, N-Methylisochroman-4-amine hydrochloride]",10 to 30,+ (LOQ ≤ + <5%),++ (5% ≤ ++ <25%),++ (5% ≤ ++ <25%),+ (LOQ ≤ + <5%),++ (5% ≤ ++ <25%),+ (LOQ ≤ + <5%),++ (5% ≤ ++ <25%),+ (LOQ ≤ + <5%),+++ (25% ≤ +++ <50%),,
Cc1cc2c(cc1C)[C@H](N)[C@H](C)OC2.Cl [Example 237],,+ (LOQ ≤ + <5%),+ (LOQ ≤ + <5%),++ (5% ≤ ++ <25%),+ (LOQ ≤ + <5%),+ (LOQ ≤ + <5%),+ (LOQ ≤ + <5%),++ (5% ≤ ++ <25%),+++ (25% ≤ +++ <50%),++ (5% ≤ ++ <25%),10 to 30,
"Cc1ccc2c(c1)[C@@H](N)[C@@H](C)OC2 (single isomer, unassigned) [Example 158]",,+ (LOQ ≤ + <5%),++ (5% ≤ ++ <25%),++ (5% ≤ ++ <25%),++ (5% ≤ ++ <25%),++ (5% ≤ ++ <25%),+ (LOQ ≤ + <5%),+++ (25% ≤ +++ <50%),++ (5% ≤ ++ <25%),++ (5% ≤ ++ <25%),3 to 10,
Cl.NC1COCc2cccc(F)c21 (centres unmarked) [Example 22],10 to 30,+ (LOQ ≤ + <5%),++ (5% ≤ ++ <25%),++ (5% ≤ ++ <25%),++ (5% ≤ ++ <25%),++ (5% ≤ ++ <25%),+ (LOQ ≤ + <5%),++ (5% ≤ ++ <25%),+ (LOQ ≤ + <5%),+++ (25% ≤ +++ <50%),,
Cc1ccc2c(c1C)[C@H](N)COC2 [Example 135],< 3,+ (LOQ ≤ + <5%),++ (5% ≤ ++ <25%),+++ (25% ≤ +++ <50%),++ (5% ≤ ++ <25%),++ (5% ≤ ++ <25%),+ (LOQ ≤ + <5%),++ (5% ≤ ++ <25%),++ (5% ≤ ++ <25%),+++ (25% ≤ +++ <50%),,
Cc1ccc2c(c1)CO[C@@H](C)[C@H]2N.Cl [Example 95],< 3,+ (LOQ ≤ + <5%),++ (5% ≤ ++ <25%),++ (5% ≤ ++ <25%),++ (5% ≤ ++ <25%),++ (5% ≤ ++ <25%),+ (LOQ ≤ + <5%),+++ (25% ≤ +++ <50%),+ (LOQ ≤ + <5%),+++ (25% ≤ +++ <50%),,
"CC[C@@H]1OCc2ccc(C)cc2[C@@H]1N (single isomer, unassigned) [Example 179]",,+ (LOQ ≤ + <5%),+ (LOQ ≤ + <5%),++ (5% ≤ ++ <25%),++ (5% ≤ ++ <25%),+++ (25% ≤ +++ <50%),+ (LOQ ≤ + <5%),++ (5% ≤ ++ <25%),+ (LOQ ≤ + <5%),++++ (50% ≤ ++++),< 3,
"Cc1cccc2c1[C@@H](C)OC[C@H]2N (single isomer, unassigned) [Example 254]",,+ (LOQ ≤ + <5%),+ (LOQ ≤ + <5%),+ (LOQ ≤ + <5%),+ (LOQ ≤ + <5%),+ (LOQ ≤ + <5%),+ (LOQ ≤ + <5%),+ (LOQ ≤ + <5%),++ (5% ≤ ++ <25%),++ (5% ≤ ++ <25%),3 to 10,
C[C@@H]1OCc2ccc3c(c2[C@@H]1N)CCCC3.Cl [Example 196],,+ (LOQ ≤ + <5%),+ (LOQ ≤ + <5%),++ (5% ≤ ++ <25%),++ (5% ≤ ++ <25%),+ (LOQ ≤ + <5%),+ (LOQ ≤ + <5%),++ (5% ≤ ++ <25%),+ (LOQ ≤ + <5%),+++ (25% ≤ +++ <50%),10 to 30,
Cl.NC1COCCc2ccccc21 (centres unmarked) [Example 30],> 30,+ (LOQ ≤ + <5%),++ (5% ≤ ++ <25%),+ (LOQ ≤ + <5%),+ (LOQ ≤ + <5%),+ (LOQ ≤ + <5%),+ (LOQ ≤ + <5%),+ (LOQ ≤ + <5%),+ (LOQ ≤ + <5%),+ (LOQ ≤ + <5%),,
"Cc1cccc2c1[C@@H](N)[C@H](C)OC2 (single isomer, unassigned) [Example 168]",,+ (LOQ ≤ + <5%),+ (LOQ ≤ + <5%),++ (5% ≤ ++ <25%),++ (5% ≤ ++ <25%),++ (5% ≤ ++ <25%),+ (LOQ ≤ + <5%),+++ (25% ≤ +++ <50%),+ (LOQ ≤ + <5%),++++ (50% ≤ ++++),3 to 10,
Cc1ccc2c(c1)[C@@H](N)[C@H](C)OC2 [Example 156],3 to 10,+ (LOQ ≤ + <5%),++ (5% ≤ ++ <25%),++ (5% ≤ ++ <25%),++ (5% ≤ ++ <25%),+ (LOQ ≤ + <5%),+ (LOQ ≤ + <5%),+ (LOQ ≤ + <5%),+ (LOQ ≤ + <5%),+++ (25% ≤ +++ <50%),,
C[C@H]1OCc2cccc(F)c2[C@@H]1N.Cl [Example 216],,+ (LOQ ≤ + <5%),++ (5% ≤ ++ <25%),++ (5% ≤ ++ <25%),+ (LOQ ≤ + <5%),++ (5% ≤ ++ <25%),+ (LOQ ≤ + <5%),+ (LOQ ≤ + <5%),+ (LOQ ≤ + <5%),++++ (50% ≤ ++++),3 to 10,
Cl.NC1COCc2c(Cl)cccc21 (centres unmarked) [Example 5],< 3,+ (LOQ ≤ + <5%),++ (5% ≤ ++ <25%),++ (5% ≤ ++ <25%),++ (5% ≤ ++ <25%),++ (5% ≤ ++ <25%),+ (LOQ ≤ + <5%),++ (5% ≤ ++ <25%),++ (5% ≤ ++ <25%),+++ (25% ≤ +++ <50%),,
Cc1ccc2c(c1)C(N)COCC2.Cl (centres unmarked) [Example 34],,,,+++ (25% ≤ +++ <50%),++ (5% ≤ ++ <25%),+ (LOQ ≤ + <5%),,++ (5% ≤ ++ <25%),++ (5% ≤ ++ <25%),,,B (>3 to 10 mpk)

# From patent US11077090B2, “Compounds and compositions and uses thereof” (Sunovion Pharmaceuticals Inc., priority 2016, dated 2021)
